The values that follow come from patent US8916607B2, “Use of piperphentonamine or salts thereof in manufacture of medicaments for treating brain diseases” (Guangzhou Municipal Zhongwei Biotechnology Limited Company, priority 2009, dated 2014).

Marks after values point to notes of the source that are not given here.

Assay [1] deals with cerebral ischemia/reperfusion injury in mice. The assay can be described thus: focal cerebral ischemia reperfusion injury model in mice (suture method), TTC infarction area. The format is in vivo. How it is done: Focal cerebral ischemia reperfusion injury model is made in mice by using suture method, being ischemia for 2 h, then reperfusing for 24 h, and it proves that piperphentonamine hydrochloride has protective effect on ischemia-reperfusion cerebral injury.
Mouse is anesthetized by injecting 10% chloral hydrate (350 mg/kg) in intraperitoneal, being intravenously administered 1 mg/kg, 5 mg/kg piperphentonamine hydrochloride or 20 u/kg coenzyme A, (COA), making the cerebral artery ischemia like as the method of example 6. Pulling out nylon thread from the internal carotid artery after the operation in 2 hours, until the end of the nylon thread is at bifurcation of the common carotid artery. Reperfusing for 24 hours. Except for not inserting a thread, the rest of steps for the false operation group are same as the above-mentioned. After reperfusion for 24 h, decapitating and taking the brain of survived mice, rapidly putting in −20° C. freezer for 5 min, then removing, quickly cutting coronal slices of 2.0 mm thickness from forward to back on the operating table, putting the slices in phosphate buffer solution with 1% TTC immediately, incubating for 30 min in avoiding light at room temperature. Flip brain slices to make them touch staining solution uniformly every 10 minute, and scanning and observing the dyeing results.
The local cerebral ischemia model of mice was established by using thread bolt method, to validate that piperphentonamine acetate has protective effect on experimental cerebral ischemia animal.

Assay [2] relates to infective brain edema of rats (pertussis bacteria liquid). Description: infective cerebral edema: IL-1β, TNF-α (ELISA) and NO (Griess) in cerebral tissue. Type of assay: in vivo, SD rats. The settings on record: pretreatment 0.5 mg/kg ip daily for 2 days; rat brain tissue, 4 h. On the procedure:
Determine the content of IL-1β, TNF-α and NO by using ELISA and Griess method.
Model preparation was same as that of example 4. Piperphentonamine acetate group was intraperitoneally injected with 0.5 mg/kg daily for 2 days 48 h before the injection of pertussis bacterial liquid. Rats in each group were decollated after being injected with bacterial liquid or saline 4 h. ELISA method and Griess method were used to measure the content of IL-1β, TNF-α and NO in brain homogenate of infectious brain edema model of rats.
On the technique in general: In an ELISA, binding on a coated surface is turned into a signal by an enzyme label.

For assay [3] the test system is unchanged. Description: infective cerebral edema by pertussis bacteria liquid: brain water, sodium and potassium ion content. The format is in vivo, SD rats. More on the design: Na^+ / K^+: unit not given here. The settings on record: pretreatment 0.5 mg/kg ip daily for 2 days; 4 h after bacterial liquid.
Assay [4] relates to cerebral edema of mice caused by closed cerebral trauma. Description: closed cerebral trauma model of mice, brain water content. Type of assay: in vivo, Kunming mice. The settings on record: method as example 2. On the procedure: There were 10 mice in each group.
The closed cerebral trauma model of mice being established after fasting for 16 hours, administering intravenously to each group, striping and taking the brain of mouse after 24 hours, weighing the wet weight, and drying at 70° C. for 24 hours, then weighing the dry weight, and calculating brainwater content; the brain water content which is higher than normal values indicates the cerebral edema.
The grouping method, administer method and model preparation were referred to example 2.

In assay [5] the test system is cultured cerebral neurons. Description: NMDA induces neuron injury in primary cultured neurons. Type of assay: cell-based, rat. The settings on record: drug 50 mmol/L; NMDA 50 mmol/L, 12 h.

In the case of `Nc1ncnc2c1ncn2[C@@H]1O[C@H](COP(=O)(O)OP(=O)(O)OP(=O)(O)O)[C@@H](O)[C@H]1O` [ATP, reference compound], the “The percentage of infarction area occupied the entire coronal plane (%)” value (“The percentage … (%)” below) in assay [1] (5 mg/kg, method as example 7 (example 16)) turned out to be 20.53 ± 4.82 %.
For the compound `CC(C)(COP(=O)(O)OP(=O)(O)OC[C@H]1O[C@@H](n2cnc3c(N)ncnc32)[C@H](O)[C@@H]1OP(=O)(O)O)[C@@H](O)C(=O)NCCC(=O)NCCS` [CoA, coenzyme A, reference compound], the “The percentage … (%)” value in assay [1] (20 U/kg iv, ischemia 2 h, reperfusion 24 h) is 20.53 ± 4.82 %.
`CC1=NN(c2ccccc2)C(=O)C1` [Edaravone Injection, edaravone, reference compound]: the “The percentage … (%)” value in assay [1] (3 mg/kg, method as example 7 (example 16)) was 18.43 ± 3.56 %.
`CC(=O)O.CN(CCC(=O)/C=C/c1ccc(O)cc1)CCc1ccc2c(c1)OCO2` [piperphentonamine acetate]: in assay [2], the IL-1β was 197.1 ± 27.1^2)3) pg/g, the NO is 53.3 ± 3.71^2)3) nmol/g and the TNF-α is on record as 309.3 ± 83.5^2)3) pg/g. Moreover, in assay [3], the “K^+” value is 396.6 ± 39.9, the “Na^+” value is 164.7 ± 23.7 and the “brain water content (%)” value is reported as 63.44 ± 0.4^3) %. For the same compound, the “The percentage … (%)” value in assay [1] (4 mg/kg, thread bolt method (example 15)) is given as 18.12 ± 2.64^ΔΔ %.
In the case of `CN(CCC(=O)/C=C/c1ccc(O)cc1)CCc1ccc2c(c1)OCO2.O=C(O)CC(O)(CC(=O)O)C(=O)O` [piperphentonamine citrate], the “brain water content (%)” value in assay [4] (2 mg/kg) was determined as 80.32 ± 7.72 %; in assay [4] (4 mg/kg), 78.84 ± 9.48 %; in assay [4] (8 mg/kg) it was 75.28 ± 6.48 %. In assay [1] (treated group (C), dose not given, model as example 7), the “The percentage … (%)” value is recorded as 16.88 ± 2.48**^ΔΔ %.
As for Ganglioside [GM, reference compound], in assay [5], the “morphological change of culture neuron (protection function)” value is reported as “equal to the one of piperphentonamine hydrochloride 10 mmol/L” and the mortality (usually the percentage killed) is given as 40%.
